The assay has as its system high HER2 tumor cell line SK-BR-3. Description: Effect of small molecules on cell proliferation (CellTiter-Glo). It is filed as cell-based. The settings on record: SK-BR-3, 120 h; (IC50 of control sample Dxd / IC50 of test sample) x 100. On the procedure: Study Purpose: In this experiment, cell viability was detected using CellTiter-Glo to evaluate the effects of the small molecule compounds on the proliferation of a high HER2 tumor cell line SK-BR-3, and to analyze the effects of the small molecule compounds on the proliferation of tumor cells.
(4) After the drug was added, the cells were incubated in the incubator for 120 h.
(3) ATP detection: Discard the culture medium and 100 μl/well DMEM was added, 50 μl/hole CTG was added into 96-well plate, protected from light using aluminum foil and oscillated using a vortex oscillator at room temperature of 200 rpm for 10 min.
GraphPad software was used to process the data. […] If necessary, the relative biological activity of sample A, i.e., ratio activity was calculated. Dxd was used as the control sample for the ratio activity calculation. Cell proliferation inhibition rate (%)=(luminescence value of drug-treated group−luminescence value of puro group)/(luminescence value of blank control group−luminescence value of puro group)×100 Ratio activity of sample (%)=(IC50 value of the control sample/IC50 value of the test sample)×100 Ratio activity of control sample (%)=(IC50 value of the control sample/IC50 value of the previous control sample)×100
For orientation: Cellular ATP, detected with luciferase, serves as a proxy for viable cell number.

Consider `CC[C@@]1(O)C(=O)OCc2c1cc1n(c2=O)Cc2c-1nc1cc(F)c(OC)c3c1c2C(NC(=O)C1(O)CC1)CC3` (mixture of isomers) [C667], for which the “Ratio activity (%)” value was 0.658%. As for `CC[C@@]1(O)C(=O)OCc2c1cc1n(c2=O)Cc2c-1nc1cc(F)c(Cl)c3c1c2[C@@H](NC(=O)COCCO)CC3` [C586], the “Ratio activity (%)” value is 0.259%. Turning to `CC[C@@]1(O)C(=O)OCc2c1cc1n(c2=O)Cc2c-1nc1cc(F)c(C)c3c1c2[C@@H](NC(=O)C[C@H](C)O)CC3` [C589, (S)—N-((1S,9S)-9-ethyl-5-fluoro-9-hydroxy-4-methyl-10,13-dioxo-2,3,9,10,13,15-hexahydro-1H,12H-benzo[de]pyrano[3′,4′:6,7]indolizino[1,2-b]quinolin-1-yl)-3-hydroxybutanamide], the “Ratio activity (%)” value was 1.325%. Turning to `CC[C@@]1(O)C(=O)OCc2c1cc1n(c2=O)Cc2c-1nc1cc(F)c(Cl)c3c1c2[C@@H](NC(=O)[C@@H](C)O)CC3` [C677], the “Ratio activity (%)” value is on record as 1.008%. In the case of `CC[C@@]1(O)C(=O)OCc2c1cc1n(c2=O)Cc2c-1nc1cc(F)c(C)c3c1c2[C@@H](NC(=O)C1(OCCO)CC1)CC3` [C565], the “Ratio activity (%)” value worked out at 1.381%. Turning to `CC[C@@]1(O)C(=O)OCc2c1cc1n(c2=O)Cc2c-1nc1cc(F)c(Br)c3c1c2[C@H](NC(=O)C(O)C(F)(F)F)CC3` (mixture of isomers) [C619], the “Ratio activity (%)” value is on record as 0.434%.

Regarding `CC[C@@]1(O)C(=O)OCc2c1cc1n(c2=O)Cc2c-1nc1cc(F)c(Cl)c3c1c2[C@@H](NC(=O)CCCO)CC3` [C679], the “Ratio activity (%)” value is given as 0.49%. In the case of `CC[C@@]1(O)C(=O)OCc2c1cc1n(c2=O)Cc2c-1nc1cc(F)c(Br)c3c1c2[C@@H](NC(=O)CO)CC3` [C637], the “Ratio activity (%)” value is given as 1.585%. On to `CC[C@@]1(O)C(=O)OCc2c1cc1n(c2=O)Cc2c-1nc1cc(F)c(Br)c3c1c2[C@@H](NC(=O)C[C@@H](C)O)CC3` [C603], for which the “Ratio activity (%)” value is on record as 1.439%. Take `CC[C@@]1(O)C(=O)OCc2c1cc1n(c2=O)Cc2c-1nc1cc(F)c(Cl)c3c1c2[C@H](NC(=O)[C@](C)(O)C(F)(F)F)CC3` [C703]: the “Ratio activity (%)” value was determined as 0.846%. For the compound `CC[C@@]1(O)C(=O)OCc2c1cc1n(c2=O)Cc2c-1nc1cc(F)c(OC)c3c1c2C(NC(=O)[C@@H](C)O)CC3` (some centres unmarked) [C668], the “Ratio activity (%)” value is 0.231%. As for `CC[C@@]1(O)C(=O)OCc2c1cc1n(c2=O)Cc2c-1nc1cc(F)c(C)c3c1c2[C@@H](NC(=O)[C@@H](OCCO)C1CC1)CC3` [C562], the figure is 1.029%; as for `CC[C@@]1(O)C(=O)OCc2c1cc1n(c2=O)Cc2c-1nc1cc(F)c(Cl)c3c1c2[C@@H](NC(=O)[C@](C)(O)C(F)(F)F)CC3` [C704], 2.271%; as for `CC[C@@]1(O)C(=O)OCc2c1cc1n(c2=O)Cc2c-1nc1cc(F)c(Cl)c3c1c2C(NC(=O)[C@H](O)C1CC1)CC3` (mixture of isomers) [C624], 0.916%. Under `CC[C@@]1(O)C(=O)OCc2c1cc1n(c2=O)Cc2c-1nc1cc(F)c(Br)c3c1c2C(NC(=O)[C@H](C)O)CC3` (mixture of isomers) [C595] stands 0.832%; under `CC[C@@]1(O)C(=O)OCc2c1cc1n(c2=O)Cc2c-1nc1cc(F)c(Cl)c3c1c2[C@H](NC(=O)C1(O)CC1)CC3` [C594], 0.568%; under `CC[C@@]1(O)C(=O)OCc2c1cc1n(c2=O)Cc2c-1nc1cc(F)c(Cl)c3c1c2[C@@H](NC(=O)[C@H](O)C(F)(F)F)CC3` [C626], 0.54%.

As to `CC[C@@]1(O)C(=O)OCc2c1cc1n(c2=O)Cc2c-1nc1cc(F)c(Br)c3c1c2[C@H](NC(=O)CO)CC3` [C636], the “Ratio activity (%)” value was found to be 0.682%. For the compound `CC[C@@]1(O)C(=O)OCc2c1cc1n(c2=O)Cc2c-1nc1cc(F)c(OC)c3c1c2C(NC(=O)C[C@H](C)O)CC3` (mixture of isomers) [C665], the “Ratio activity (%)” value is reported as 0.495%. As for `CC[C@@]1(O)C(=O)OCc2c1cc1n(c2=O)Cc2c-1nc1cc(F)c(Br)c3c1c2[C@@H](NC(=O)C[C@H](C)O)CC3` [C601], the “Ratio activity (%)” value turned out to be 1.826%.

As to `CC[C@@]1(O)C(=O)OCc2c1cc1n(c2=O)Cc2c-1nc1cc(F)c(Cl)c3c1c2[C@@H](NC(=O)CO)CC3` [C518, N-((1S,9S)-4-chloro-9-ethyl-5-fluoro-9-hydroxy-10,13-dioxo-2,3,9,10,13,15-hexahydro-1H,12H-benzo[de]pyrano[3′,4′:6,7]indolizino[1,2-b]quinolin-1-yl)-2-hydroxyacetamide], the “Ratio activity (%)” value is on record as 2.272%. For the compound `CC[C@@]1(O)C(=O)OCc2c1cc1n(c2=O)Cc2c-1nc1cc(F)c(OC)c3c1c2C(NC(=O)CO)CC3` (mixture of isomers) [C664], the “Ratio activity (%)” value was 0.269%. For `CC[C@@]1(O)C(=O)OCc2c1cc1n(c2=O)Cc2c-1nc1cc(F)c(Cl)c3c1c2[C@@H](NC(=O)[C@@H](O)C1CC1)CC3` [C622], the “Ratio activity (%)” value was found to be 0.669%.

Take `CC[C@@]1(O)C(=O)OCc2c1cc1n(c2=O)Cc2c-1nc1cc(F)c(Br)c3c1c2[C@H](NC(=O)C[C@H](C)O)CC3` [C600]: the “Ratio activity (%)” value was 0.62%. As to `CC[C@@]1(O)C(=O)OCc2c1cc1n(c2=O)Cc2c-1nc1cc(F)c(Cl)c3c1c2[C@H](NC(=O)CCCO)CC3` [C680], the “Ratio activity (%)” value came out at 0.546%. As to `CC[C@@]1(O)C(=O)OCc2c1cc1n(c2=O)Cc2c-1nc1cc(F)c(Br)c3c1c2[C@H](NC(=O)[C@@H](C)O)CC3` [C596], the “Ratio activity (%)” value came to 0.911%. In the case of `CC[C@@]1(O)C(=O)OCc2c1cc1n(c2=O)Cc2c-1nc1cc(F)c(Cl)c3c1c2[C@H](NC(=O)CO)CC3` [C519, N-((1R,9S)-4-chloro-9-ethyl-5-fluoro-9-hydroxy-10,13-dioxo-2,3,9,10,13,15-hexahydro-1H,12H-benzo[de]pyrano[3,4′:6,7]indolizino[1,2-b]quinolin-1-yl)-2-hydroxyacetamide], the “Ratio activity (%)” value is 1.059%. As to `CC[C@@]1(O)C(=O)OCc2c1cc1n(c2=O)Cc2c-1nc1cc(F)c(C)c3c1c2[C@@H](NC(=O)[C@@](C)(O)C(F)(F)F)CC3` [C688], the “Ratio activity (%)” value worked out at 0.744%. Under `CC[C@@]1(O)C(=O)OCc2c1cc1n(c2=O)Cc2c-1nc1cc(F)c(Br)c3c1c2[C@@H](NC(=O)[C@@H](C)O)CC3` [C597] stands 0.684%. As for `CC[C@@]1(O)C(=O)OCc2c1cc1n(c2=O)Cc2c-1nc1cc(F)c(Cl)c3c1c2[C@@H](NC(=O)C1(O)CC1)CC3` [C593], the figure is 2.514%; as for `CC[C@@]1(O)C(=O)OCc2c1cc1n(c2=O)Cc2c-1nc1cc(F)c(OC)c3c1c2C(NC(=O)C(O)C(F)(F)F)CC3` (some centres unmarked) [C671], 0.365%.

On to `CC[C@@]1(O)C(=O)OCc2c1cc1n(c2=O)Cc2c-1nc1cc(F)c(C)c3c1c2[C@@H](NC(=O)C[C@@H](C)O)CC3` [C588], for which the “Ratio activity (%)” value was determined as 1.019%. Turning to `CC[C@@]1(O)C(=O)OCc2c1cc1n(c2=O)Cc2c-1nc1cc(F)c(Cl)c3c1c2C(NC(=O)C[C@H](C)O)CC3` (mixture of isomers) [C625], the “Ratio activity (%)” value is reported as 0.783%. With `CC[C@@]1(O)C(=O)OCc2c1cc1n(c2=O)Cc2c-1nc1cc(F)c(Cl)c3c1c2[C@H](NC(=O)COCCO)CC3` [C587], the “Ratio activity (%)” value stood at 0.285%. With `CC[C@@]1(O)C(=O)OCc2c1cc1n(c2=O)Cc2c-1nc1cc(F)c(C)c3c1c2[C@@H](NC(=O)COCCO)CC3` [C504], the “Ratio activity (%)” value turned out to be 0.703%. Turning to `CC[C@@]1(O)C(=O)OCc2c1cc1n(c2=O)Cc2c-1nc1cc(F)c(Cl)c3c1c2[C@@H](NC(=O)[C@@H](O)C(F)(F)F)CC3` [C627], the “Ratio activity (%)” value is 5.054%. As for `CC[C@@]1(O)C(=O)OCc2c1cc1n(c2=O)Cc2c-1nc1cc(F)c(Br)c3c1c2[C@@H](NC(=O)C(O)C(F)(F)F)CC3` (mixture of isomers) [C620], the figure is 0.384%. As for `CC[C@@]1(O)C(=O)OCc2c1cc1n(c2=O)Cc2c-1nc1cc(F)c(Cl)c3c1c2[C@H](N)CC3` [C731], the figure is 0.82%; as for `CC[C@@]1(O)C(=O)OCc2c1cc1n(c2=O)Cc2c-1nc1cc(F)c(Br)c3c1c2[C@H](NC(=O)C[C@@H](C)O)CC3` [C602], 0.29%; as for `CC[C@@]1(O)C(=O)OCc2c1cc1n(c2=O)Cc2c-1nc1cc(F)c(C)c3c1c2[C@@H](NC(=O)[C@H](OCCO)C1CC1)CC3` [C563], 1.284%. Regarding `CC[C@@]1(O)C(=O)OCc2c1cc1n(c2=O)Cc2c-1nc1cc(F)c(C)c3c1c2[C@@H](NC(=O)CO)CC3` [Dxd, reference compound], the “Ratio activity (%)” value stood at 1%.

Regarding `CC[C@@]1(O)C(=O)OCc2c1cc1n(c2=O)Cc2c-1nc1cc(F)c(Cl)c3c1c2[C@H](NC(=O)[C@@H](C)O)CC3` [C678], the “Ratio activity (%)” value turned out to be 0.277%. As for `CC[C@@]1(O)C(=O)OCc2c1cc1n(c2=O)Cc2c-1nc1cc(F)c(C)c3c1c2[C@@H](NC(=O)[C@](C)(O)C(F)(F)F)CC3` [C687], the figure is 1.835%; as for `CC[C@@]1(O)C(=O)OCc2c1cc1n(c2=O)Cc2c-1nc1cc(F)c(Cl)c3c1c2[C@@H](N)CC3` [C730], 1.35%.
